Experimental data from patent US20160349268A1, “STEPWISE ASSEMBLED CAPTURE COMPOUNDS COMPRISING A CLEAVABLE FUNCTION AND METHOD FOR ISOLATING AND/OR CHARACTERIZING BIOMOLECULES OR BIOMOLECULE FRAGMENTS, IN PARTICULAR PROTEINS OR PROTEIN FRAGMENTS, OF COMPLEX MIXTURES” (CAPROTEC BIOANALYTICS GMBH, priority 2014, published 2016).

How the values were obtained:
[1] = Click-and-cleave without proteins/lysate (release of cleaved off photo-reacted reactivity function 15, LC-MS); assay type: physicochemical; details: for Area/a.u. of LC-MS EIC 249.10 peak at 1.75 min (cleaved off photo-reacted reactivity function 15): starting material bound to CPG-TCO beads 13
Procedure: A solution of 100 μL 2.5 μM 11 (CPT727, Capture Compound bearing tetrazine as sorting function and a chemically cleavable photo-reactivity function) in phosphate buffered saline (PBS) was irradiated with UV light (λmax=310 nm) for 5 min at 4° C. in the caproBox (caprotec bioanalytics, Berlin. Germany) to activate the reactivity function yielding 12 (Scheme 12).
The resulting solution was incubated with 2 mg 13 (CPT601, CCB 4, trans-cyclooctene (TCO) modified controlled pore glass (CPG), CPG-TCO beads) over night at 4° C. to covalently bind compound 12 to 13 by the TCO-tetrazine click reaction yielding 14 (Scheme 12). During this time, 13 was kept in suspension by rotation.
Unbound 12 was removed by separating the supernating solution from 14 after centrifugation in a table top centrifuge and washing the solid 14 by re-suspending in fresh solution and removal of the supernatant after centrifugation (three times with 200 μl SL Buffer (50 mM Tris/HCl, 320 mM beta-mercaptoethanol, 2.5% sodium dodecylsulfate, 0.05% bromophenol blue, 10% glycerol, pH 6.8), three times with 200 μl 50% acetonitrile).
The washed 14 was divided into two aliquots. One aliquot was incubated with 10 mM 2-nitrobenzhydrazide and 10 mM HCl in 10 μl 50% acetonitrile (final concentrations and volume) at room temperature for 1 h while keeping 14 in suspension by rotation yielding the cleaved off photo-reacted reactivity function 15 (Scheme 12). As a control, the second aliquot of 14 was treated the same way side-by-side but without 2-nitrobenzhydrazide and HCl. The solutions supernating (cleaved) 14 were analyzed by LC-MS.
The same procedure was performed side-by-side using 16 (CPT634, Capture Compound bearing tetrazine as sorting function and non-cleavable photo-reactivity function) instead of 11.

[2] = target: T1, 5-methylthioadenosine/S-adenosylhomocysteine nucleosidase (Escherichia coli, UniProt P0AF12); experiment: Click-and-cleave with proteins/lysate, nanoLC/MS2 protein quantification of gel slices; assay type: binding, E. coli K-12 strain; details: compound 2.5 μM, gel slice around 25 kDa
T1 construct: prepared from the DH5a derivative of the E. coli K-12 strain; endogenous in cells; host or cells: E. coli K-12 DH5a lysate
T1 sequence (P0AF12 whole entry): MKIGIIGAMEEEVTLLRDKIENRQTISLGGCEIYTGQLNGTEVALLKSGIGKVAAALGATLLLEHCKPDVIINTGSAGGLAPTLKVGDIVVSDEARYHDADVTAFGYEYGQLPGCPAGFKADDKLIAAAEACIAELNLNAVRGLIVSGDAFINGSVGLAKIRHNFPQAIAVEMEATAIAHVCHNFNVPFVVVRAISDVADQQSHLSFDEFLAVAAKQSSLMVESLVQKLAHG
Procedure: (§1) Compound 11 (final concentration 2.5 μM) was incubated for 5 min at 4° C. with a lysate (final total protein concentration 5 mg/ml) prepared from the DH5a derivative of the E. coli K-12 strain in phosphate buffered saline (final volume 100 μl). In a so called competition control (designated “C” as opposed to “A” for CCMS assay without the competitor SAH) carried out side-by-side, S-adenosyl-L-homocysteine (SAH) (final concentration 250 μM) was added to the lysate before compound 11 to compete for the binding of the SAH selectivity function of 11 to SAH binding proteins such as S-adenosyl-L-methionine (SAM) dependent methyltransferases.
(§2) The samples were irradiated with UV light (λmax=310 nm) for 5 min in the caproBox (caprotec bioanalytics, Berlin, Germany) at about 4° C. to activate the reactivity function of 11 and form the covalent cross-link to proteins leading to 11-protein conjugates. Due to the SAH selectivity function in 11. SAH binding proteins will be selectively cross-linked to 11 and this selective crosslink will be diminished or inhibited in the competition control “C”.
(§3) The samples “A” and “C” were incubated with 250 μg 13 (CPT601, CCB 4, trans-cyclooctene (TCO) modified controlled pore glass (CPG). CPG-TCO beads), respectively, over night at 4° C. with rotation to keep the CPG beads (13) in suspension. During this time the 11-protein conjugates covalently bound to 13 by the TCO-tetrazine click reaction to form 13-11-protein conjugates. Selective binding of 11-protein conjugates to 13 was shown by taking 5 μl samples of “A” and “C”, respectively, before and after incubation with 13 and incubating these samples with 18 (final concentration 10 μM, CPT533. Probe 3, TCO-TAMRA) for 15 min at room temperature. Formed by the TCO-tetrazine click reaction, the fluorescent 18-11-protein conjugates were detected as in-gel fluorescent bands after SDS-PAGE. In the samples taken after incubation with 13, less in-gel fluorescent bands (18-11-protein conjugates) were detected than in the samples taken before incubation with 13, showing that 11-protein conjugates had reacted with 13 to form 13-11-protein conjugates.
(§4) The supernating solution was separated from the 13-11-protein conjugates after centrifugation in a table top centrifuge and the CPG beads containing the 13-11-protein conjugates were washed by re-suspending in fresh solution and removal of the supernatant after centrifugation (three times with 200 μl 4×SL Buffer, three times with 200 μl 50% acetonitrile).
(§5) The washed CPG beads containing the 13-11-protein conjugates were divided into two aliquots, respectively, for “A” and “C”. One aliquot was incubated with 10 mM 2-nitrobenzhydrazide and 10 mM HCl in 10 μl 50% acetonitrile (final concentrations and volume) at room temperature for 1 h while keeping the CPG beads containing the 13-11-protein conjugates in suspension by rotation yielding proteins with attached cleaved off photo-reacted reactivity function. As a control, the second aliquot of the CPG beads containing the 13-11-protein conjugates was treated the same way side-by-side but without 2-nitrobenzhydrazide and HCl. The proteins in the solutions supernating (cleaved) the CPG beads were analyzed by SDS-PAGE (4-20% Tris-Glycine gradient gels, 15 well, 1.0 mm; Novex® life Technologes® Ref. EC60255BOX, 25 min run time at 300 V) followed by silver staining (ProteoSilver Silver Stain Kit, Sigma).
(§6) Gel slices were cut out around 25 kDa in each gel lane corresponding to the molecular weight (height) of the specific gel lane marked by the red arrow in FIG. 13. The gel slices were treated with trypsin and the resulting peptides were analyzed by nanoLC/MS^2 (LTQ Orbitrap) followed by automatic software based protein identification and quantification (MaxQuant software package). […]

[3] = target: T2, Ribosomal RNA small subunit methyltransferase G (Escherichia coli, UniProt P0A6U5); experiment: as above; assay type: binding, E. coli K-12 strain; details: Cleavage, compound 2.5 μM, gel slice around 25 kDa
T2 construct: prepared from the DH5a derivative of the E. coli K-12 strain; endogenous in cells; host or cells: E. coli K-12 DH5a lysate
T2 sequence (P0A6U5 whole entry): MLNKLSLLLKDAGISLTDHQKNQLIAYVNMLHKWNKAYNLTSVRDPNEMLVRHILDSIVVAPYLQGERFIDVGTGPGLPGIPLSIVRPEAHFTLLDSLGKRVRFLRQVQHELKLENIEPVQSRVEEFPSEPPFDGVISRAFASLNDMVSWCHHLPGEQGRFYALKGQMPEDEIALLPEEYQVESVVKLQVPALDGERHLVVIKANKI
Procedure: as §1, §2, §3, §4, §5, §6

[4] = target: T3, tRNA (cmo5U34)-methyltransferase (Escherichia coli, UniProt P76290); experiment: as above; assay type: binding, E. coli K-12 strain; details: Cleavage, compound 2.5 μM, gel slice around 25 kDa
T3 construct: prepared from the DH5a derivative of the E. coli K-12 strain; endogenous in cells; host or cells: E. coli K-12 DH5a lysate
T3 sequence (P76290 whole entry): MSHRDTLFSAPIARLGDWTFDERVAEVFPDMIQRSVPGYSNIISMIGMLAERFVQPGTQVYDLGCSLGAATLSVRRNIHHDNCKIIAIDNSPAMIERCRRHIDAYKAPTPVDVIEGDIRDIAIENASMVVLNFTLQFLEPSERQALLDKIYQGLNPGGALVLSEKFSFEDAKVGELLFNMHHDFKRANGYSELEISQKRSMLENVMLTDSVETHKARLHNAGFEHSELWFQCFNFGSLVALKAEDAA
Procedure: as §1, §2, §3, §4, §5, §6

[5] = target: T4, tRNA (guanine-N(7)-)-methyltransferase (Escherichia coli, UniProt P0A8I5); experiment: as above; assay type: binding, E. coli K-12 strain; details: A (without competitor SAH), Cleavage; compound 2.5 μM, gel slice around 25 kDa
T4 construct: prepared from the DH5a derivative of the E. coli K-12 strain; endogenous in cells; host or cells: E. coli K-12 DH5a lysate
T4 sequence (P0A8I5 whole entry): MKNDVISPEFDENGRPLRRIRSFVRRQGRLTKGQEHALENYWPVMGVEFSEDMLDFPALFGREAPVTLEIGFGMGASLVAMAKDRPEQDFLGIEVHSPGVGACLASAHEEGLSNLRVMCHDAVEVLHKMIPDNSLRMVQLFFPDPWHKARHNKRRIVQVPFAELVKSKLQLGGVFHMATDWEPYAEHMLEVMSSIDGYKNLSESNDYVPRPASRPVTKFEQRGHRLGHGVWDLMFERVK
Procedure: as §1, §2, §3, §4, §5, §6

SAH binding protein = target: T5, SAH binding protein (Escherichia coli, UniProt P0AF12); experiment: Click-and-cleave with proteins/lysate, SDS-PAGE/silver stain; parameters: species or system E. coli K-12 strain; details: cleavage conditions (10 mM 2-nitrobenzhydrazide and 10 mM HCl in 50% acetonitrile)
T5 construct: prepared from the DH5a derivative of the E. coli K-12 strain; endogenous in cells; host or cells: E. coli K-12 DH5a lysate
T5 sequence (P0AF12 whole entry): as the sequence (P0AF12 whole entry) above
Procedure: Compound 11 (final concentration 2.5 μM) was incubated for 5 min at 4° C. with a lysate (final total protein concentration 5 mg/ml) prepared from the DH5a derivative of the E. coli K-12 strain in phosphate buffered saline (final volume 100 μl). In a so called competition control (designated “C” as opposed to “A” for CCMS assay without the competitor SAH) carried out side-by-side, S-adenosyl-L-homocysteine (SAH) (final concentration 250 μM) was added to the lysate before compound 11 to compete for the binding of the SAH selectivity function of 11 to SAH binding proteins such as S-adenosyl-L-methionine (SAM) dependent methyltransferases. […]
The samples “A” and “C” were incubated with 250 μg 13 (CPT601, CCB 4, trans-cyclooctene (TCO) modified controlled pore glass (CPG). CPG-TCO beads), respectively, over night at 4° C. with rotation to keep the CPG beads (13) in suspension. […] Formed by the TCO-tetrazine click reaction, the fluorescent 18-11-protein conjugates were detected as in-gel fluorescent bands after SDS-PAGE. In the samples taken after incubation with 13, less in-gel fluorescent bands (18-11-protein conjugates) were detected than in the samples taken before incubation with 13, showing that 11-protein conjugates had reacted with 13 to form 13-11-protein conjugates. […]

[6] = A (without competitor SAH), Cleavage (10 mM 2-nitrobenzhydrazide, 10 mM HCl)
[7] = A (without competitor SAH), no Cleavage
[8] = C (competition control, SAH 250 μM), Cleavage
[9] = C (competition control, SAH 250 μM), no Cleavage
[10] = C (competition control, SAH 250 μM)

Row | Compound | fold higher intensity of 15 with 2-nitrobenzhydrazide and HCl than without ([1]; 10 mM 2-nitrobenzhydrazide, 10 mM HCl vs 50% acetonitrile only) | Area/a.u. of LC-MS EIC 249.10 peak at 1.75 min (cleaved off photo-reacted reactivity function 15) ([1]; cleavage condition 10 mM 2-nitrobenzhydrazide, 10 mM HCl in 50% acetonitrile) | Area/a.u. of LC-MS EIC 249.10 peak at 1.75 min (cleaved off photo-reacted reactivity function 15) ([1]; cleavage condition 50% acetonitrile) | Normalized protein intensities [2, 6] | Normalized protein intensities [2, 7] | Normalized protein intensities [2, 8] | Normalized protein intensities [2, 9] | Normalized protein intensities ([3]; A (without competitor SAH)) | Normalized protein intensities [3, 10] | Normalized protein intensities ([4]; A (without competitor SAH)) | Normalized protein intensities [4, 10] | Normalized protein intensities [5] | gel band corresponding to a SAH binding protein after SDS-PAGE/silver stain (SAH binding protein)
1 | Cc1nnc(-c2ccc(CN(CC(=O)NCCCCNc3ncnc4c3ncn4C3OC(CSCC[C@H](N)C(=O)O)C(O)C3O)C(=O)CC/C=N/N(C)C(=O)c3ccc(C4(C(F)(F)F)N=N4)cc3)cc2)nn1 (stereo partly drawn) [Compound 11, (2S)-2-amino-4-((3,4-dihydroxy-5-(6-(4-(2-((E)-N-(4-(6-methyl-1,2,4,5-tetrazin-3-yl)benzyl)-4-(2-methyl-2-(4-(3-(trifluoromethyl)-3H-diazirin-3-yl)benzoyl)hydrazono)butanamido)acetamido)butylamino)-9H-purin-9-yl)tetrahydrofuran-2-yl)methylthio)butanoic acid] | more than 50 fold | 26722302 a.u. | 491625 a.u. | 9.0E+07 | 4.0E+06 | 2.2E+06 | 1.0E+06 | 7.8E+05 | 3.6E+05 | 1.6E+06 | 2.9E+05 | 4.0E+05 | present
2 | Cc1nnc(-c2ccc(CN(CC(=O)NCCCCNc3ncnc4c3ncn4C3OC(CSCC[C@H](N)C(=O)O)C(O)C3O)C(=O)c3ccc(C4(C(F)(F)F)N=N4)cc3)cc2)nn1 (some centres unmarked) [Compound 16] | – | – | – | 7.2E+06 | 1.9E+05 | 7.9E+05 | 2.6E+05 | 1.5E+05 | 7.5E+04 | – | – | – | absent
